One may read the IC50 as the midpoint of a concentration-inhibition curve.

The target in experiment [1] is T1, 15-LOX (Glycine max, UniProt P08170).
T1 construct: purchased Cayman chemicals 760700
T1 sequence (P08170 1-839): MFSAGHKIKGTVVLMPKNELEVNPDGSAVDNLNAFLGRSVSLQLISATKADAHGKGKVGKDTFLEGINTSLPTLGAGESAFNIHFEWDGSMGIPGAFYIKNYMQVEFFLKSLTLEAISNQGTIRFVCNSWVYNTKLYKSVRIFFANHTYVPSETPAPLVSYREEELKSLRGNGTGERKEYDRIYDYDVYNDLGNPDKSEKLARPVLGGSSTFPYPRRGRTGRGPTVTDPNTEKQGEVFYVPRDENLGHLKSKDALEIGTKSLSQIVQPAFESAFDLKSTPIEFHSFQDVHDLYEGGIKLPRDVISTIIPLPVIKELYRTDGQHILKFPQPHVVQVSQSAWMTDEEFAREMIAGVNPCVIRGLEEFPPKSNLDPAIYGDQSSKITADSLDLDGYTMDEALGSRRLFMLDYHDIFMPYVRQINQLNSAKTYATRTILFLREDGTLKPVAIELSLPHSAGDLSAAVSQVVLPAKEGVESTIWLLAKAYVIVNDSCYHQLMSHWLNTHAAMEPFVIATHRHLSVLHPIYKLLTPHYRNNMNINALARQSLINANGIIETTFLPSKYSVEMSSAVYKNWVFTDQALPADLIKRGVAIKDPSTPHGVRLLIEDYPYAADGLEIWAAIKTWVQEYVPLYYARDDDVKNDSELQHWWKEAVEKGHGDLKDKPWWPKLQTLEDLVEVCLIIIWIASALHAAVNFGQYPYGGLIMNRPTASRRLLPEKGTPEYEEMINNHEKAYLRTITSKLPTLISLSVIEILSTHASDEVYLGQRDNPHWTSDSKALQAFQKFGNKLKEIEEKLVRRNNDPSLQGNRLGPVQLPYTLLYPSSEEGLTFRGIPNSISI
Put plainly: In vitro 15-LOX inhibition assay (lipoxygenase inhibitor screening kit, Cayman). It is filed as biochemical. The method, then:
(§1) Both assays were carried out in compliance with the manufacturer’s instructions and in accordance to prior studies[29]^,[33].
(§2) IC50 values (μM) and selectivity indices (SI) were calculated.

Experiment [2] concerns the target T2, human recombinant COX-2 (Homo sapiens, UniProt P35354).
T2 construct: purchased Cayman Chemicals Inc. 560131
T2 sequence (P35354 18-604): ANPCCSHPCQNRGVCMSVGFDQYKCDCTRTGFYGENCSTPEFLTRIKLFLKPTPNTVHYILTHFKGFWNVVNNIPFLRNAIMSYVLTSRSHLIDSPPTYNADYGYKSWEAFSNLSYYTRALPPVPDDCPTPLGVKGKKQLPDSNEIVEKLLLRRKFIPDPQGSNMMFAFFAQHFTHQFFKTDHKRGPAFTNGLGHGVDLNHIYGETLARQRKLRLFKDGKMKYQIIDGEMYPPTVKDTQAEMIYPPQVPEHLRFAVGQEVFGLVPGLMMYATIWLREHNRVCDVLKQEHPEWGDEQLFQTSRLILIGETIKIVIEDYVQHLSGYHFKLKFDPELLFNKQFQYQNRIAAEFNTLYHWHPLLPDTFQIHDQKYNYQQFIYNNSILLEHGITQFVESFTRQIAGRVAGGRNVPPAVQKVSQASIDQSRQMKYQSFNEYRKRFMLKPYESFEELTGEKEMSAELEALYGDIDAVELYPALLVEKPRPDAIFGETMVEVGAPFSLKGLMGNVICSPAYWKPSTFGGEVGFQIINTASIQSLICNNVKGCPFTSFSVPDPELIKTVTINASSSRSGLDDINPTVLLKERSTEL
Description: In vitro COX-2 inhibition assay (colorimetric COX inhibitor screening kit, Cayman). It is filed as biochemical. On the procedure:
as §1, §2

Experiment [3] relates to formalin-induced rat paw oedema. Put plainly: Formalin-induced paw oedema test (acute inflammation model). The note with it: oral 5 mg/kg once daily for seven days; oedema 4 h after formalin; vs diclofenac sodium and celecoxib 5 mg/kg. It counts as in vivo, Wistar rats. On the procedure: A freshly prepared 5% formalin solution (prepared from 37% formaldehyde and saline (Merck, Germany)) was used as a phlogistic agent. Test and reference compounds (5 mg/kg body weight) were dissolved in DMSO and given orally with gastric gavage once per day for seven consecutive days, whereas DMSO was administered to the control group. On the 8th day, the initial paw volume was determined by a Vernier calliper. Then, a subcutaneous injection of 40 μl formalin was introduced into the right hind paw of all groups under light ether anaesthesia. The paw volume was measured 4 h after the formalin injection and the oedema volume was calculated by the difference in paw volume before and 4 h after the formalin injection. The percentage inhibition of oedema (or % protection against inflammation) was calculated for each compound as previously reported[34]^,[35].

Experiment [4] relates to PMA/LPS-stimulated THP-1 (M1 macrophages). Put plainly: Cytotoxicity assay on differentiated M1 macrophages (MTS). The conditions noted are these: PMA 24 h, LPS 24 h, then compound 24 h; up to 100 μM. It counts as cell-based, human. On the procedure:
To confirm that the previous observations were a consequence of interference of the compounds with the differentiation process rather than a reduction in monocyte viability, THP-1 monocytes were incubated with different concentrations of the compound for 30 h. No difference in cell viability was detected. Moreover, the cytotoxic effects of the drugs on differentiated macrophages were evaluated. Following the incubation of THP-1 cells with 25 nM PMA for 24 h and 100 ng/ml LPS for 24 h, the differentiated macrophages were treated with different concentrations of the compounds for 24 h. Cell viability was assessed using MTS colorimetric cell viability kit (Abcam, Cambridge, UK).

Experiment [5] has as its system IL-1β. Put plainly: IL-1β protein expression by Western blotting. It counts as cell-based, human. The conditions noted are these: 100 μM compound; PMA 24 h then LPS 72 h; normalised to GAPDH. The method, then: THP-1 monocytes were exposed to 100 μM of the test compounds, activated with 25 nM PMA for 24 h followed by 100 ng/ml LPS for 72 h. At the end of the incubation period, cells were harvested, proteins were extracted and SDS-PAGE electrophoresis, blotting, and antibody probing were conducted as described previously. Primary rabbit polyclonal antibodies to IL-1β, procaspase-3, and GAPDH were obtained from Abcam (Cambridge, UK). Clarity Western ECL substrate (BioRad, Hercules, CA, USA) was used to obtain a chemiluminescence signal captured by a Chemidoc imaging system (BioRad, Hercules, CA, USA). Band density was estimated using ImageJ software (National Institutes of Health, Bethesda, MD) and normalised to the GAPDH band density as a loading control.

For experiment [6], the system named is cotton pellet-induced granuloma. Put plainly: Cotton pellet-induced granuloma assay (chronic inflammation model). The conditions noted are these: oral 5 mg/kg daily; pellets excised on 8th day; vs diclofenac sodium and celecoxib.

Turning to `COc1ccc(-c2nn(-c3ccccc3)cc2/C=C2\SC(N3CCCCC3)=NC2=O)cc1` [Compound 7, (Z)-5-((3-(4-methoxyphenyl)-1-phenyl-1H-pyrazol-4-yl)methylene)-2-(piperidin-1-yl)thiazol-4(5H)-one], the “15-LOX inhibition, potency compared with quercetin (in words)” value in experiment [1] is given as “almost equipotent to quercetin”. Moreover, the 50% inhibitory concentration (IC50) amounted to 3.52 µM in experiment [1] (mean of three determinations) and 0.09 µM in experiment [2] (mean of three determinations). Moreover, in experiment [2] (IC50 (COX-1)/IC50 (COX-2)), the “SI (COX-1/ COX-2)” value amounted to 114. Moreover, in experiment [3], the “Inhibition of formalin-induced rat paw oedema (in words)” value is “as effective as either diclofenac or celecoxib”. Moreover, the “M1 macrophage cell viability” value in experiment [4] is “tended to slightly decrease”. Also, the “IL-1β expression in PMA/LPS-challenged THP-1” value in experiment [5] is on record as “attenuating IL-1β production”. Also, the “Inhibition of cotton pellet granuloma weight (in words)” value in experiment [6] is recorded as “only superior to celecoxib”.

Values taken from paper PMC7901699, “Challenging inflammatory process at molecular, cellular and in vivo levels via some new pyrazolyl thiazolones” (Journal of Enzyme Inhibition and Medicinal Chemistry, 2021).
